Experimental data taken from ChEMBL document CHEMBL4507291 (2021).

Tests used:
[1] = molecular target: Sodium-dependent noradrenaline transporter (Homo sapiens, UniProt P23975); test: Inhibition of Transporter, Norepinephrine (NET) at compound concentration of 10.0 uM in the Eurofins-Panlabs radioligand binding assay (Eurofins_assay_204410); design: ligand concentration 0.2 nM, non-specific ligand with concentration 10 uM Desipramine, incubation time 3 h, incubation temperature 4 C
[2] = molecular target: T1, MAP/microtubule affinity-regulating kinase 4 (Homo sapiens) (UniProt Q96L34); test: MARK4 Kinase screen; details: Compound concentration 1.0 uM
T1 sequence (whole entry): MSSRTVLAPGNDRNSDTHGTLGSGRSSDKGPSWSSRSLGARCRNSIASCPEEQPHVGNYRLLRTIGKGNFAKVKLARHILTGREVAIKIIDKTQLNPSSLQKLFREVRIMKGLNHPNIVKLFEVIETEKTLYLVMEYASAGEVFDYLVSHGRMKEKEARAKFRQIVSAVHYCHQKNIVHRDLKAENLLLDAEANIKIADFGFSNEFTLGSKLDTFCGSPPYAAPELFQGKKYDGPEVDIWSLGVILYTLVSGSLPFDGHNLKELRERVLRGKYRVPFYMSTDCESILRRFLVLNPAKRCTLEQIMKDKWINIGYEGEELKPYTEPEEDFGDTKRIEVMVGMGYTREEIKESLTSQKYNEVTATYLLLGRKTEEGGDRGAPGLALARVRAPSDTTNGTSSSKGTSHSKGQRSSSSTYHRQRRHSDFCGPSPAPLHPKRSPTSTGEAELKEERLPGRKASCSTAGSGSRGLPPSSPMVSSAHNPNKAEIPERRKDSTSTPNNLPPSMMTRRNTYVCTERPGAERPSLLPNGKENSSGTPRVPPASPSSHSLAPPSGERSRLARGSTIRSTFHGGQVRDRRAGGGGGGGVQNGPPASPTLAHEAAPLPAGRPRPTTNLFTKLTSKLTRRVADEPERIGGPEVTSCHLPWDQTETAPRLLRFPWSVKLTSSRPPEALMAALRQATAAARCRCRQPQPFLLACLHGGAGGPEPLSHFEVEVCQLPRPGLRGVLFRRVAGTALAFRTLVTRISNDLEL

[3] = molecular target: Serine/threonine-protein kinase N1 (Homo sapiens) (UniProt Q16512); test: PKN1 (PRK1) Kinase screen; details: Compound concentration 1.0 uM
[4] = molecular target: Serine/threonine-protein kinase PLK3 (Homo sapiens) (UniProt Q9H4B4); test: PLK3 Kinase screen; details: Compound concentration 1.0 uM
[5] = PRKCB2 (PKC beta II) Kinase screen; details: Compound concentration 1.0 uM
[6] = molecular target: Focal adhesion kinase 1 (Homo sapiens) (UniProt Q05397); test: PTK2 (FAK) Kinase screen; details: Compound concentration 1.0 uM
[7] = molecular target: T2, Dual specificity protein kinase TTK (Homo sapiens) (UniProt P33981); test: TTK Kinase screen; details: Compound concentration 1.0 uM
T2 sequence (whole entry): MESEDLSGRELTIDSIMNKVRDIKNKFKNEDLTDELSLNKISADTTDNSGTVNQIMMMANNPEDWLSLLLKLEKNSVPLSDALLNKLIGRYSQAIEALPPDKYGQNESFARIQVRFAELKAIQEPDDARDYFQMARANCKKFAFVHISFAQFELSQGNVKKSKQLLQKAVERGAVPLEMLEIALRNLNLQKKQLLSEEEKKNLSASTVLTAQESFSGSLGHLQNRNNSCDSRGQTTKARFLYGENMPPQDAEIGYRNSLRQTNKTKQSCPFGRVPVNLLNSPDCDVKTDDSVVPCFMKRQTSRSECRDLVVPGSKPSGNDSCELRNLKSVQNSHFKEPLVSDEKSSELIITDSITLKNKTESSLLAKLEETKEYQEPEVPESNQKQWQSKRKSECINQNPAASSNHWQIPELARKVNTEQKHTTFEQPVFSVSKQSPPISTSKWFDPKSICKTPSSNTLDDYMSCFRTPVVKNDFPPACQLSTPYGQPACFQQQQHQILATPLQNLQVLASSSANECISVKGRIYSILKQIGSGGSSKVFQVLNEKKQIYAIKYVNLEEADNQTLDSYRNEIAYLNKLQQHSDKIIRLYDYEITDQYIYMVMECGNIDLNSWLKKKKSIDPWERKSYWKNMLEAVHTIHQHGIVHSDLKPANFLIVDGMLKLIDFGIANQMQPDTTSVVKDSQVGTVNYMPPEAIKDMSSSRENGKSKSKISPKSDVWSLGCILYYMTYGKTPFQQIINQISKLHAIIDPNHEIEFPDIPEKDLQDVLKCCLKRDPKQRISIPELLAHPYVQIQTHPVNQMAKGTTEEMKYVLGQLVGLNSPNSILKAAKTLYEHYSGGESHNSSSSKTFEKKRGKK

[8] = molecular target: T3, Tyrosine-protein kinase TXK (Homo sapiens) (UniProt P42681); test: TXK Kinase screen; details: Compound concentration 1.0 uM
T3 sequence (whole entry): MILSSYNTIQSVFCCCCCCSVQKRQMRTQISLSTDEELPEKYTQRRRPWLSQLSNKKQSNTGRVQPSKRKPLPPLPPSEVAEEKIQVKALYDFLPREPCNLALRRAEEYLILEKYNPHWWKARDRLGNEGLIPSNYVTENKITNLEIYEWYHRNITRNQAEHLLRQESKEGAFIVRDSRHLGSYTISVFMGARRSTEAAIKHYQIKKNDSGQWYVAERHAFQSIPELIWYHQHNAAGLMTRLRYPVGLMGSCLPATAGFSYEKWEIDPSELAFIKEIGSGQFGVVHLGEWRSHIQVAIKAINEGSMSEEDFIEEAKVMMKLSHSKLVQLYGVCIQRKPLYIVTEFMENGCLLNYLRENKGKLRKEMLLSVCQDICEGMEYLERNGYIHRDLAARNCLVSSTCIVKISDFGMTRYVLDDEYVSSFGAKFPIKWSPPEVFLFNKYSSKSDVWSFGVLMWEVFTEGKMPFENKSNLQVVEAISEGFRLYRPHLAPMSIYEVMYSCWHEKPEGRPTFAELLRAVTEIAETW

Homo sapiens = organism: Homo sapiens; test: Somatostatin sst2 Eurofins-Panlabs radioligand binding assay; design: ligand concentration 0.03 nM; details: Compound concentration 10.0 uM
[9] = molecular target: T4, 5-hydroxytryptamine receptor 2C (Homo sapiens) (UniProt P28335); details: Compound concentration 10.0 uM
T4 sequence (whole entry): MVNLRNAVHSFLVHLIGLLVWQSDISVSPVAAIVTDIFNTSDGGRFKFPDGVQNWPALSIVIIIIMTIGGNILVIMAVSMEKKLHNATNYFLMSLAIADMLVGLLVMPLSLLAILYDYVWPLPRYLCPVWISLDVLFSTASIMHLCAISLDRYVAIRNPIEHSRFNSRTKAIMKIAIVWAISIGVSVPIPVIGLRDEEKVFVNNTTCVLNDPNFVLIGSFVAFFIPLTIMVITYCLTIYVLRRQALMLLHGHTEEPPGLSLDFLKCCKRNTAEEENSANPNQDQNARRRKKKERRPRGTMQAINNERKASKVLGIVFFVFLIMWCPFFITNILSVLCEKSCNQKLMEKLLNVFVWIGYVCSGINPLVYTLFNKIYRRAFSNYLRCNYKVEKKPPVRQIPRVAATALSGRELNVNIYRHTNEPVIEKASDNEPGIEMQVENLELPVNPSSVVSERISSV

[10] = molecular target: 3-phosphoinositide-dependent protein kinase 1 (PDPK1) (Homo sapiens) (UniProt O15530); test: PDK1 Kinase screen; details: Compound concentration 1.0 uM
Chain of 3-phosphoinositide-dependent protein kinase 1 (PDPK1) (Homo sapiens) (O15530 whole entry, looked up): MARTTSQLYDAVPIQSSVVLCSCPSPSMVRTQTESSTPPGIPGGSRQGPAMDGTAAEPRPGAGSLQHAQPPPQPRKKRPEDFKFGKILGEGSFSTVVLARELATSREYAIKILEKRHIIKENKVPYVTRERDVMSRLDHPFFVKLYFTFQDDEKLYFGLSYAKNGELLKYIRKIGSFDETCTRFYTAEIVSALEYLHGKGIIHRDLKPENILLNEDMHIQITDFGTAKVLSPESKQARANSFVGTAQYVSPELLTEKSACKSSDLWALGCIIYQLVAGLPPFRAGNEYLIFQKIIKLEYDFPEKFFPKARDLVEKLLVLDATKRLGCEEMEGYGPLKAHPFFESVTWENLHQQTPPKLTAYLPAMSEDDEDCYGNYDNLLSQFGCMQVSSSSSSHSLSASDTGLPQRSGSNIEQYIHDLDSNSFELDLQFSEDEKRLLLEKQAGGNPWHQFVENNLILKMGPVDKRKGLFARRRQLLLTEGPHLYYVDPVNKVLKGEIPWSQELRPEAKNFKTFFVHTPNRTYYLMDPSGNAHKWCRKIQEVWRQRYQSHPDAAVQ

Chain of Serine/threonine-protein kinase PLK3 (Homo sapiens) (Q9H4B4 whole entry, looked up): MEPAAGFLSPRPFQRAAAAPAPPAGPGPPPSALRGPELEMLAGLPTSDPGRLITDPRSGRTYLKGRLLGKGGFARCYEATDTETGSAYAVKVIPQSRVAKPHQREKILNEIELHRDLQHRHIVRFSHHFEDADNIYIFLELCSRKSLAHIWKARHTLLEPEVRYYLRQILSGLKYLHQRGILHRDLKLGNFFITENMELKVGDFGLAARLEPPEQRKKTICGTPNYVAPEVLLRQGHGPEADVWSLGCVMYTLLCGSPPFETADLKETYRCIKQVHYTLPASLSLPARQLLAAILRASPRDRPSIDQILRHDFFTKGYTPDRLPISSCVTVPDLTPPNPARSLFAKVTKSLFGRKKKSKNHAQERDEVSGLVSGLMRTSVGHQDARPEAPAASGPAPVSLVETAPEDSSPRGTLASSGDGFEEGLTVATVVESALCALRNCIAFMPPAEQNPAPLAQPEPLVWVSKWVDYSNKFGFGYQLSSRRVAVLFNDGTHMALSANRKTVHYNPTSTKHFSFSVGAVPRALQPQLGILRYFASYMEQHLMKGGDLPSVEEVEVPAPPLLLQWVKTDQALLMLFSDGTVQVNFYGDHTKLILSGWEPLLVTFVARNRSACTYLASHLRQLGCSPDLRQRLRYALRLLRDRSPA
Chain of Sodium-dependent noradrenaline transporter (P23975 whole entry): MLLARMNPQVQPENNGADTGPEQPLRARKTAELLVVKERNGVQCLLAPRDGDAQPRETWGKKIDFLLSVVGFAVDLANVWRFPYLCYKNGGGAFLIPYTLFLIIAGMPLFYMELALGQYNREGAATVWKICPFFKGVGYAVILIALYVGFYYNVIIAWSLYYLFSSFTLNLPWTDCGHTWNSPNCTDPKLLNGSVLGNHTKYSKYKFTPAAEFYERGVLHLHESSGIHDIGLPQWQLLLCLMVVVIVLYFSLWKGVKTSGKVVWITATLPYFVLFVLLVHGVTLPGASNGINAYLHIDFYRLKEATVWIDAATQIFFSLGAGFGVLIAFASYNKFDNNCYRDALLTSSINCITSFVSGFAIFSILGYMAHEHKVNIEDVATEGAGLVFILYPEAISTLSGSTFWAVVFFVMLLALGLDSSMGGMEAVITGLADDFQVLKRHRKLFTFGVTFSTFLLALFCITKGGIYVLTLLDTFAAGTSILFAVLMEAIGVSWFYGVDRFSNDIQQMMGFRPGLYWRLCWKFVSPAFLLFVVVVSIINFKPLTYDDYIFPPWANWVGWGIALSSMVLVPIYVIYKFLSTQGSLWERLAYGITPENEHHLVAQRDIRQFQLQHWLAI
Chain of Serine/threonine-protein kinase N1 (Homo sapiens) (Q16512 2-942 limits assumed): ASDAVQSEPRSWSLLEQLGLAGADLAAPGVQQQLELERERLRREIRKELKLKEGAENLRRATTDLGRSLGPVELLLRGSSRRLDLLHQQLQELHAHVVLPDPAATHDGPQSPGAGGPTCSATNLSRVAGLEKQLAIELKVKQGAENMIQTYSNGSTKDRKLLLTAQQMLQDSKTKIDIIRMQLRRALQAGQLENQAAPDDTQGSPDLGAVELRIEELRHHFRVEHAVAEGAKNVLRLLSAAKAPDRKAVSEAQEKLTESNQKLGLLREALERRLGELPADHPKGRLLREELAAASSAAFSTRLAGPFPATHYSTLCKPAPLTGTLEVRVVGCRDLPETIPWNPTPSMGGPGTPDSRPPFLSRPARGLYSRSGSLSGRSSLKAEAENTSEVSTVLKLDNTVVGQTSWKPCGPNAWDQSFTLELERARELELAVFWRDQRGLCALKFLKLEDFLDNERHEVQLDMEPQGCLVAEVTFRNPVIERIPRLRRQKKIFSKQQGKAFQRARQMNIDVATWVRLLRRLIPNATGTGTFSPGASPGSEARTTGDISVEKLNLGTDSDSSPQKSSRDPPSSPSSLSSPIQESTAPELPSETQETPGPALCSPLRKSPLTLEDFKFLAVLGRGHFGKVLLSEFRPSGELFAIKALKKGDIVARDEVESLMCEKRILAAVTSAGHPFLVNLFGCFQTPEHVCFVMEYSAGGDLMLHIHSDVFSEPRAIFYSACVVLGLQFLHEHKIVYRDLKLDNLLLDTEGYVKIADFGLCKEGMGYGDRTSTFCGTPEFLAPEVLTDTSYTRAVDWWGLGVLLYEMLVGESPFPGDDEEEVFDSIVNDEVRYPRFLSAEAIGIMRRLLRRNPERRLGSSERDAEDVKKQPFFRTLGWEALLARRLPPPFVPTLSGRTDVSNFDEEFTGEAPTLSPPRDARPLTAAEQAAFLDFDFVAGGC
Chain of Focal adhesion kinase 1 (Homo sapiens) (Q05397 2-1052 limits assumed): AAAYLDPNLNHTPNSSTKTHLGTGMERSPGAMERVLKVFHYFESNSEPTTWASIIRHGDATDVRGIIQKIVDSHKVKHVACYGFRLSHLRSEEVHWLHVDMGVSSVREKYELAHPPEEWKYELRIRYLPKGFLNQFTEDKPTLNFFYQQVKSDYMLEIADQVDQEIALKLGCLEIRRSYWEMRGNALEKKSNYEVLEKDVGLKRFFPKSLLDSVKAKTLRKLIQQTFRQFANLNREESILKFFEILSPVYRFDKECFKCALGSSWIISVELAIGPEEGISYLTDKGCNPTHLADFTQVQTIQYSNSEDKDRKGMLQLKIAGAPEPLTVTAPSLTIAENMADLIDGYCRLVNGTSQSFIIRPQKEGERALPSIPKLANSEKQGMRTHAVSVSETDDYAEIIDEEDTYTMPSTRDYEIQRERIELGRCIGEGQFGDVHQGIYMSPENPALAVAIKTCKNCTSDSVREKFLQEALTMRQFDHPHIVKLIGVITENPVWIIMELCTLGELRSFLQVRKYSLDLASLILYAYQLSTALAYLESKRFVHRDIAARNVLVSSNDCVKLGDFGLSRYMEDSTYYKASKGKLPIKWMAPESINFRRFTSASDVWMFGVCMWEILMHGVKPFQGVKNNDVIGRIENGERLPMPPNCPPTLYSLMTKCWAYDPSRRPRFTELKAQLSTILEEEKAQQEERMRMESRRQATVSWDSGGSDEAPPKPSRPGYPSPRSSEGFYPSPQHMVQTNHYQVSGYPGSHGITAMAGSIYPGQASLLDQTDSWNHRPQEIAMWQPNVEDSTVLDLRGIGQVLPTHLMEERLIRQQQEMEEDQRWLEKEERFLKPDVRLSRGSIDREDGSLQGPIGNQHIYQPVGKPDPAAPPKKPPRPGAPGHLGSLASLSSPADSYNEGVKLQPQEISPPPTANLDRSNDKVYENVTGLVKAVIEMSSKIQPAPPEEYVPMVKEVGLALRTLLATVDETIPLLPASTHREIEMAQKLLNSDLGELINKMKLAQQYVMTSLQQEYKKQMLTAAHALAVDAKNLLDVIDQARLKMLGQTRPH

C[C@@H]1CN(c2cc(-c3n[nH]c4ccc(OC5(C)CC5)cc34)ncn2)C[C@H](C)O1 [MLi-2]
inactive: inhibition [2] 15.7% | inhibition [3] 1.46% | inhibition [4] 4.9% | inhibition [5] 10.4% | inhibition [6] 14.2% | inhibition [7] 56.5% | inhibition [8] 3.11% | inhibition (Homo sapiens) 13% | inhibition [9] -7% | inhibition [10] 13.6%
3.79 µM: Ki [1]
